Data as given in article PMC4138103 (PLoS ONE, 2014).

Test system: Sprague-Dawley rats
Test: Clinical chemistry
Assay type: in vivo, Rattus norvegicus
Set-up: key to Cholesterol, Dose response / Triglyserides, Dose response / Glucose, Dose response / Albumin, Dose response / K, Dose response / Total bilirubin, Dose response: D: significant dose response (for results, see Table 2); T: significant trend
Conditions: for Alkaline phosphatase, CED / Alkaline phosphatase, CED-L / Chlolesterol, CED / Chlolesterol, CED-L / Glucose, CED / Glucose, CED-L / Potassium, CED / Potassium, CED-L / Total Bilirubin, CED / Total Bilirubin, CED-L / Albumin, CED / Albumin, CED-L / Total protein, CED / Total protein, CED-L / Triglycerides, CED / Triglycerides, CED-L: total dose based
Experimental: Spectrophotometric methods were used for the determination of serum total calcium, cholesterol, creatinine, glucose, triglycerides and urea. Serum sodium, potassium and chloride concentrations were measured directly by ion selective electrodes. The analyses were performed by a clinical chemistry analyzer (Konelab 30i, ThermoFisher Scientific, Vantaa, Finland). Plasma lactate dehydrogenase (LD) activity was measured according to the recommendations of the International Federation of Clinical Chemistry (IFCC 1994/I) using Konelab 60i clinical chemistry analyzer. Methods and results for liver related parameters (serum alanine aminotransferase [ALT] activity, alkaline phosphatase [ALP] activity, albumin, total protein and total bilirubin are reported separately.
Data were also analyzed using the BMD method, which is based on dose-response modeling of the full data set using a nested family of exponential and Hill models. The analyses were done on data of males and females combined, using sex as a covariate. […] In that case, different Critical Effect Doses (CEDs) and CEDs at the lowest bound of the confidence interval (CED-L) were generated for each sex. If no difference between sexes is detected, a CED and CED-Ls for the combined data is generated. However, this was also done if the curve fits are close, and separate analyses for males and females were then performed manually. CEDs and CED-Ls were calculated at the predefined Critical Effect Size (CES) of 5% (EFSA standard) or 10%.

[1] = females, total dose 1700 mg/kg bw
[2] = females, adipose tissue concentration based
[3] = males, total dose 0-1700 mg/kg bw
[4] = males, total dose 1000 mg/kg bw
[5] = males, total dose 1700 mg/kg bw
[6] = males, adipose tissue concentration based

Clc1cc(Cl)c(-c2cc(Cl)c(Cl)c(Cl)c2Cl)cc1Cl [PCB 180, 2,2′,3′,4,4′,5,5′-heptachlorobiphenyl] was tested, and the Creatinine [1] was 52.5 µmol/L, the Glucose [1] was 12.4 mmol/L and the K [1] was 5.30 mmol/L. The Na [1] was 143.2 mmol/L, the “Total Ca” value [1] was 3.49 mmol/L and the Total bilirubin [1] was 1.37 µmol/L. For the same compound, the Triglyserides [1] was 0.88 mmol/L, the Urea [1] was 10.0 mmol/L and the “Alkaline phosphatase, CED” value (females, CES 5%) was 67.6 mg/kg bw. The “Alkaline phosphatase, CED-L” value (females, CES 5%) was 30.1 mg/kg bw, the “Chlolesterol, CED” value (females, CES 5%) was 192 mg/kg bw and the “Chlolesterol, CED-L” value (females, CES 5%) was 167 mg/kg bw. The “Glucose, CED” value (females, CES 5%) was 677 mg/kg bw, the “Glucose, CED-L” value (females, CES 5%) was 408 mg/kg bw and the “Potassium, CED” value (females, CES 5%) was 1210 mg/kg bw. For the same compound, the “Potassium, CED-L” value (females, CES 5%) was 786 mg/kg bw, the “Total Bilirubin, CED” value (females, CES 5%) was 4.12 mg/kg bw and the “Total Bilirubin, CED-L” value (females, CES 5%) was 0.67 mg/kg bw. The “Alkaline phosphatase, CED” value (females, CES 10%) was 154 mg/kg bw, the “Alkaline phosphatase, CED-L” value (females, CES 10%) was 68.5 mg/kg bw and the “Chlolesterol, CED” value (females, CES 10%) was 375 mg/kg bw. The “Chlolesterol, CED-L” value (females, CES 10%) was 326 mg/kg bw, the “Glucose, CED” value (females, CES 10%) was 1390 mg/kg bw and the “Glucose, CED-L” value (females, CES 10%) was 839 mg/kg bw. The “Potassium, CED” value (females, CES 10%) was 2490 mg/kg bw, the “Potassium, CED-L” value (females, CES 10%) was 1614 mg/kg bw and the “Total Bilirubin, CED” value (females, CES 10%) was 10.3 mg/kg bw. The “Total Bilirubin, CED-L” value (females, CES 10%) was 1.63 mg/kg bw, the “Serum ALP activity, CED” value [2] was 308 µg/g lipid and the “Serum cholesterol, CED” value [2] was 640 µg/g lipid. The “Albumin, Dose response” value [3] was “T”, the “Cholesterol, Dose response” value [3] was “T” and the “Glucose, Dose response” value [3] was “T”. For the same compound, the “Triglyserides, Dose response” value [3] was “T”, the Albumin (males, total dose 3 mg/kg bw) was 32.6 g/L and the Cholesterol (males, total dose 3 mg/kg bw) was 2.72 mmol/L. The Cl (males, total dose 3 mg/kg bw) was 96.9 mmol/L, the Creatinine (males, total dose 3 mg/kg bw) was 54.2 µmol/L and the Glucose (males, total dose 3 mg/kg bw) was 18.9 mmol/L. The K (males, total dose 3 mg/kg bw) was 5.76 mmol/L, the Na (males, total dose 3 mg/kg bw) was 143.1 mmol/L and the “Total Ca” value (males, total dose 3 mg/kg bw) was 3.43 mmol/L. It also gave a Total bilirubin (males, total dose 3 mg/kg bw) of 2.02 µmol/L, a Triglyserides (males, total dose 3 mg/kg bw) of 0.84 mmol/L and a Urea (males, total dose 3 mg/kg bw) of 9.0 mmol/L. The Albumin (males, total dose 10 mg/kg bw) was 32.9 g/L, the Cholesterol (males, total dose 10 mg/kg bw) was 2.84 mmol/L and the Cl (males, total dose 10 mg/kg bw) was 96.8 mmol/L. For the same compound, the Creatinine (males, total dose 10 mg/kg bw) was 51.5 µmol/L, the Glucose (males, total dose 10 mg/kg bw) was 14.9 mmol/L and the K (males, total dose 10 mg/kg bw) was 6.12 mmol/L. For the same compound, the Na (males, total dose 10 mg/kg bw) was 143.0 mmol/L, the “Total Ca” value (males, total dose 10 mg/kg bw) was 3.41 mmol/L and the Total bilirubin (males, total dose 10 mg/kg bw) was 1.58 µmol/L. It also gave a Triglyserides (males, total dose 10 mg/kg bw) of 0.88 mmol/L, a Urea (males, total dose 10 mg/kg bw) of 8.2 mmol/L and an Albumin (males, total dose 30 mg/kg bw) of 32.8 g/L. The Cholesterol (males, total dose 30 mg/kg bw) was 2.74 mmol/L, the Cl (males, total dose 30 mg/kg bw) was 96.0 mmol/L and the Creatinine (males, total dose 30 mg/kg bw) was 53.8 µmol/L. The Glucose (males, total dose 30 mg/kg bw) was 18.6 mmol/L, the K (males, total dose 30 mg/kg bw) was 5.93 mmol/L and the Na (males, total dose 30 mg/kg bw) was 142.9 mmol/L. The “Total Ca” value (males, total dose 30 mg/kg bw) was 3.44 mmol/L, the Total bilirubin (males, total dose 30 mg/kg bw) was 1.46 µmol/L and the Triglyserides (males, total dose 30 mg/kg bw) was 0.65 mmol/L. The Urea (males, total dose 30 mg/kg bw) was 9.3 mmol/L, the Albumin (males, total dose 100 mg/kg bw) was 33.1 g/L and the Cholesterol (males, total dose 100 mg/kg bw) was 3.56 mmol/L. It also gave a Cl (males, total dose 100 mg/kg bw) of 96.3 mmol/L, a Creatinine (males, total dose 100 mg/kg bw) of 53.4 µmol/L and a Glucose (males, total dose 100 mg/kg bw) of 17.8 mmol/L. The K (males, total dose 100 mg/kg bw) was 5.74 mmol/L, the Na (males, total dose 100 mg/kg bw) was 143.0 mmol/L and the “Total Ca” value (males, total dose 100 mg/kg bw) was 3.58 mmol/L. It also gave a Total bilirubin (males, total dose 100 mg/kg bw) of 1.54 µmol/L, a Triglyserides (males, total dose 100 mg/kg bw) of 0.34 mmol/L and a Urea (males, total dose 100 mg/kg bw) of 9.2 mmol/L. For the same compound, the Albumin (males, total dose 300 mg/kg bw) was 32.5 g/L, the Cholesterol (males, total dose 300 mg/kg bw) was 3.44 mmol/L and the Cl (males, total dose 300 mg/kg bw) was 96.3 mmol/L. For the same compound, the Creatinine (males, total dose 300 mg/kg bw) was 52.6 µmol/L, the Glucose (males, total dose 300 mg/kg bw) was 17.7 mmol/L and the K (males, total dose 300 mg/kg bw) was 5.73 mmol/L. For the same compound, the Na (males, total dose 300 mg/kg bw) was 142.7 mmol/L, the “Total Ca” value (males, total dose 300 mg/kg bw) was 3.46 mmol/L and the Total bilirubin (males, total dose 300 mg/kg bw) was 1.73 µmol/L. For the same compound, the Triglyserides (males, total dose 300 mg/kg bw) was 0.36 mmol/L, the Urea (males, total dose 300 mg/kg bw) was 9.0 mmol/L and the Albumin [4] was 34.2 g/L. The Cholesterol [4] was 4.35 mmol/L, the Cl [4] was 95.7 mmol/L and the Creatinine [4] was 53.8 µmol/L. For the same compound, the Glucose [4] was 11.8 mmol/L, the K [4] was 6.12 mmol/L and the Na [4] was 142.6 mmol/L. For the same compound, the “Total Ca” value [4] was 3.45 mmol/L, the Total bilirubin [4] was 1.84 µmol/L and the Triglyserides [4] was 0.32 mmol/L. For the same compound, the Urea [4] was 9.9 mmol/L, the Albumin [5] was 34.4 g/L and the Cholesterol [5] was 5.15 mmol/L. It also gave a Cl [5] of 97.7 mmol/L, a Creatinine [5] of 55.4 µmol/L and a Glucose [5] of 12.7 mmol/L. For the same compound, the K [5] was 5.89 mmol/L, the Na [5] was 143.4 mmol/L and the “Total Ca” value [5] was 3.53 mmol/L. The Total bilirubin [5] was 1.87 µmol/L, the Triglyserides [5] was 0.44 mmol/L and the Urea [5] was 9.1 mmol/L. For the same compound, the “Albumin, CED” value (males, CES 5%) was 1550 mg/kg bw, the “Albumin, CED-L” value (males, CES 5%) was 1090 mg/kg bw and the “Alkaline phosphatase, CED” value (males, CES 5%) was 542 mg/kg bw. The “Alkaline phosphatase, CED-L” value (males, CES 5%) was 327 mg/kg bw, the “Chlolesterol, CED” value (males, CES 5%) was 38.3 mg/kg bw and the “Chlolesterol, CED-L” value (males, CES 5%) was 19.5 mg/kg bw. For the same compound, the “Glucose, CED” value (males, CES 5%) was 198 mg/kg bw, the “Glucose, CED-L” value (males, CES 5%) was 146 mg/kg bw and the “Total protein, CED” value (males, CES 5%) was 255 mg/kg bw. For the same compound, the “Total protein, CED-L” value (males, CES 5%) was 134 mg/kg bw, the “Triglycerides, CED” value (males, CES 5%) was 3.31 mg/kg bw and the “Triglycerides, CED-L” value (males, CES 5%) was 1.90 mg/kg bw. For the same compound, the “Albumin, CED” value (males, CES 10%) was 3040 mg/kg bw, the “Albumin, CED-L” value (males, CES 10%) was 2130 mg/kg bw and the “Alkaline phosphatase, CED” value (males, CES 10%) was 1110 mg/kg bw. The “Alkaline phosphatase, CED-L” value (males, CES 10%) was 672 mg/kg bw, the “Chlolesterol, CED” value (males, CES 10%) was 79.0 mg/kg bw and the “Chlolesterol, CED-L” value (males, CES 10%) was 40.4 mg/kg bw. The “Glucose, CED” value (males, CES 10%) was 408 mg/kg bw, the “Glucose, CED-L” value (males, CES 10%) was 300 mg/kg bw and the “Total protein, CED” value (males, CES 10%) was 702 mg/kg bw. For the same compound, the “Total protein, CED-L” value (males, CES 10%) was 379 mg/kg bw, the “Triglycerides, CED” value (males, CES 10%) was 6.92 mg/kg bw and the “Triglycerides, CED-L” value (males, CES 10%) was 3.97 mg/kg bw. The “Serum chlolesterol, CED-L” value [6] was 91400 ng/g lipid, the “Serum cholesterol, CED” value [6] was 177 µg/g lipid and the “Serum total protein, CED” value [6] was 1080 µg/g lipid. For the same compound, the “Serum triglyceride, CED” value [6] was 12.5 µg/g lipid and the “Serum triglycerids, CED-L” value [6] was 7260 ng/g lipid.
